In data set [1] the test system is Rattus norvegicus. As to the kind of experiment: Oral dose necessary to produce excretion of 2 mequiv of Na+/kg in rat urine in a 4-hr period after oral administration; inactive. It counts as ADME, organism-based. As to conditions: in vivo; call rule not given here.
For data set [2], the system named is Rattus norvegicus. The experiment in a line: Oral dose necessary to produce an excretion of 2 mequiv of Na+/kg in the rat urine in the 4-h period after peroral administration. It counts as ADME, organism-based. As to conditions: in vivo.
For data set [3], the system named is Rattus norvegicus. The experiment in a line: Percent change of arterial blood pressure in spontaneously hypertensive rats at the dose of 300 mg/kg (p.o.) after […] (control BP(mm Hg)=214). It counts as functional. As to conditions: route oral.
For data set [4], the system named is Rattus norvegicus. The experiment in a line: Percent change of arterial blood pressure in spontaneously hypertensive rats at the dose of 300 mg/kg (p.o.) after 24 h (control BP(mm Hg)=214). It counts as functional. As to conditions: route oral.
Data set [5] concerns Rattus norvegicus. As to the kind of experiment: Percent change of arterial blood pressure in spontaneously hypertensive rats at the dose of 300 mg/kg (p.o.) after 6 hr (control BP(mm Hg)=214). As to conditions: route oral. Format: functional.
Data set [6] relates to Rattus norvegicus. As to the kind of experiment: Percent change of arterial blood pressure in spontaneously hypertensive rats at the dose of 30 mg/kg (p.o.) after […] (control BP(mm Hg)=210). Format: functional. To be noted: route oral.
Data set [7] concerns Rattus norvegicus. The experiment in a line: Percent change of arterial blood pressure in spontaneously hypertensive rats at the dose of 30 mg/kg (p.o.) after 24 hr (control BP(mm Hg)=210). As to conditions: route oral. It counts as functional.
The subject of data set [8] is Rattus norvegicus. The experiment in a line: Percent change of arterial blood pressure in spontaneously hypertensive rats at the dose of 30 mg/kg (p.o.) after 6 hr (control BP(mm Hg)=210). It counts as functional. As to conditions: route oral.
Data set [9] concerns Rattus norvegicus. As to the kind of experiment: Percent change of arterial blood pressure in spontaneously hypertensive rats at the dose of 100 mg/kg (p.o.) after […] (control BP(mm Hg)=206). It counts as functional. As to conditions: route oral.
The subject of data set [10] is Rattus norvegicus. The experiment in a line: Percent change of arterial blood pressure in spontaneously hypertensive rats at the dose of 100 mg/kg (p.o.) after 6 hr (control BP(mm Hg)=206). To be noted: route oral. Format: functional.
Data set [11] relates to Rattus norvegicus. The experiment in a line: Percent change of arterial blood pressure in spontaneously hypertensive rats at the dose of 100 mg/kg (p.o.) after 24 hr (control BP(mm Hg)=206). It counts as functional. As to conditions: route oral.

For the molecule `CCOC(=O)COc1ccc(C(=O)c2ccc(O)c(C(=O)O)c2)c(Cl)c1Cl`, the ED2 entry in [1] is reported as “Not Active”.

In the case of `CCOC(=O)COc1ccc(C(=O)c2ccc(O)c(CO)c2)c(Cl)c1Cl`, in data set [1], the ED2 result was “Not Active”.

On to `CCOC(=O)COc1ccc(C(=O)c2cc(CN3CCS(=O)(=O)CC3)c(O)c(CN3CCS(=O)(=O)CC3)c2)c(Cl)c1Cl`, for which, in data set [1], the ED2 result was “Not Active”.

For the molecule `CCOC(=O)COc1ccc(C(=O)c2ccc(O)c(CNC(C)=O)c2)c(Cl)c1Cl`, the ED2 result in [1] is “Not Active”.

In the case of `CCOC(=O)COc1ccc(C(=O)c2ccc3c(c2)CNC(=O)O3)c(Cl)c1Cl`, the ED2 result in data set [1] was “Not Active”.

Take `CN(C)Cc1cc(C(=O)c2ccc(OCC(=O)O)c(Cl)c2Cl)ccc1O`: the ED2 result in [1] is reported as “Not Active”.

On to `CCOC(=O)COc1ccc(C(=O)c2ccc(O)c(C(N)=O)c2)c(Cl)c1Cl`, for which the ED2 entry in [1] is listed as “Not Active”.

`CCOC(=O)COc1ccc(C(=O)c2ccc(O)c(CN=C(N)N)c2)c(Cl)c1Cl`: the ED2 in data set [2] was 34 mg/kg.

Consider `CCOC(=O)COc1ccc(C(=O)c2ccc(O)c(CN3CCS(=O)(=O)CC3)c2)c(Cl)c1Cl`, for which, in data set [1], the ED2 result is recorded as “Not Active”.

For `CCOC(=O)COc1ccc(C(=O)c2ccc(O)c(C[N+](C)(C)C)c2)c(Cl)c1Cl.[Cl-]`, in data set [1], the ED2 entry was “Not Active”.

With `CN(C)Cc1cc(C(=O)c2ccc(OCC(=O)O)c(Cl)c2Cl)cc(CN(C)C)c1O.Cl`, the ED2 entry in data set [1] is listed as “Not Active”.

For the molecule `CCOC(=O)COc1ccc(C(=O)c2cc(I)c(O)c(CN)c2)c(Cl)c1Cl.Cl`, the ED2 in data set [2] came to 1 mg/kg.

On to `CCOC(=O)COc1ccc(C(=O)c2ccc(O)c(CN)c2)cc1.Cl`, for which, in data set [2], the ED2 amounted to 10 mg/kg.

In the case of `CCOC(=O)COc1ccc(C(=O)c2cc(Cl)c(O)c(CN)c2)c(Cl)c1Cl.Cl`, the ED2 in data set [2] worked out at 1 mg/kg.

As for `CCOC(=O)COc1ccc(C(=O)c2ccc(CN)c(OC)c2)c(Cl)c1Cl.Cl`, in data set [1], the ED2 entry is “Not Active”.

For `CCOC(=O)COc1ccc(C(=O)c2cc(C)c(O)c(CN)c2)c(Cl)c1Cl.Cl`, the ED2 in data set [2] came out at 1 mg/kg.

For `Br.CCOC(=O)COc1ccc(C(=O)c2ccc(OC)c(CN)c2)c(Cl)c1Cl`, in [1], the ED2 result is reported as “Not Active”.

With `CCOC(=O)COc1ccc(C(=O)c2cccc(CN)c2)c(Cl)c1Cl.Cl`, the ED2 in data set [2] amounted to 12 mg/kg.

Regarding `Cl.NCc1cc(C(=O)c2ccc(OCC(=O)O)c(Cl)c2Cl)ccc1O`, the ED2 result in [1] is listed as “Not Active”.

Consider `CCOC(=O)COc1ccc(C(=O)c2ccc(O)c(CN(C)C)c2)c(Cl)c1Cl.Cl`, for which, in data set [2], the ED2 was 16 mg/kg.

Consider `CCOC(=O)COc1ccc(C(=O)c2ccc(CN)cc2)c(Cl)c1Cl.Cl`, for which, in data set [1], the ED2 entry is on record as “Not Active”.

For `CCOC(=O)COc1ccc(C(=O)c2ccc(Cl)c(CN)c2)c(Cl)c1Cl.Cl`, the ED2 in data set [2] is 50 mg/kg.

Regarding `CCOC(=O)COc1ccc(C(=O)c2cccc(CN)c2O)c(Cl)c1Cl.Cl`, the ED2 entry in data set [1] is on record as “Not Active”.

With `CCOC(=O)COc1ccc(C(=O)c2cc(CN3CCCCC3)c(O)c(CN3CCCCC3)c2)c(Cl)c1Cl.Cl`, in [1], the ED2 entry is listed as “Not Active”.

Consider `CCOC(=O)COc1ccc(C(=O)c2cc(CN)ccc2O)c(Cl)c1Cl.Cl`, for which the ED2 in [2] was found to be 3 mg/kg.

For `CCOC(=O)COc1ccc(C(=O)c2ccc(O)c(CN3CCCCC3)c2)c(Cl)c1Cl.Cl`, in data set [1], the ED2 entry is given as “Not Active”.

For `CCOC(=O)COc1ccc(C(=O)c2ccc(O)c(CN3CCCC3)c2)c(Cl)c1Cl.Cl`, in data set [1], the ED2 result is listed as “Not Active”.

Regarding `CCOC(=O)COc1ccc(C(=O)c2ccc(O)c(C(C)N)c2)c(Cl)c1Cl.Cl` (stereo not given), in data set [2], the ED2 worked out at 1.2 mg/kg.

Consider `CCOC(=O)COc1ccc(C(=O)c2ccc(O)c(CN)c2)c2ccccc12.Cl`, for which, in [2], the ED2 turned out to be 15 mg/kg.

For the molecule `CCOC(=O)COc1ccc(C(=O)c2ccc(O)c(CN(CC)CC)c2)c(Cl)c1Cl.Cl`, the ED2 entry in data set [1] is given as “Not Active”.

Consider `Br.CCOC(=O)COc1ccc(C(=O)c2ccc(CN)c(O)c2)c(Cl)c1Cl`, for which the ED2 result in data set [1] is listed as “Not Active”.

`CCOC(=O)COc1ccc(C(=O)c2ccc(O)c(CN)c2)cc1Cl.Cl`: the ED2 in data set [2] amounted to 5 mg/kg.

Consider `CCOC(=O)COc1ccc(C(=O)c2ccc(O)c(CN3CCOCC3)c2)c(Cl)c1Cl.Cl`, for which, in [1], the ED2 result is given as “Not Active”.

Regarding `CCOC(=O)COc1ccc(C(=O)c2cc(CN3CCCC3)c(O)c(CN3CCCC3)c2)c(Cl)c1Cl.Cl`, the ED2 result in [1] is reported as “Not Active”.

As for `CCOC(=O)COc1ccc(C(=O)c2cc(CN)c(O)c(CN)c2)c(Cl)c1Cl.Cl`, in data set [2], the ED2 was 11 mg/kg.

For `CCOC(=O)COc1ccc(C(=O)c2cc(CN(CC)CC)c(O)c(CN(CC)CC)c2)c(Cl)c1Cl.Cl`, in [1], the ED2 result is “Not Active”.

`CCOC(=O)COc1ccc(C(=O)c2cc(CN3CCOCC3)c(O)c(CN3CCOCC3)c2)c(Cl)c1Cl.Cl`: the ED2 result in [1] is listed as “Not Active”.

Turning to `CCOC(=O)COc1ccc(C(=O)c2ccc(O)c(CN)c2)c(Cl)c1.Cl`, the ED2 in data set [2] is 5 mg/kg.

For the molecule `CCOC(=O)COc1ccc(C(=O)c2ccc(O)c(CNO)c2)c(Cl)c1Cl.Cl`, in data set [2], the ED2 worked out at 4 mg/kg.

Consider `CCOC(=O)COc1ccc(C(=O)c2ccc(O)c(CN)c2)c(C)c1C.Cl`, for which the ED2 in data set [2] worked out at 6 mg/kg.

For the molecule `CCOC(=O)COc1ccc(C(=O)c2cc(CN(C)C)c(O)c(CN(C)C)c2)c(Cl)c1Cl.Cl`, the ED2 in [2] was determined as 7 mg/kg.

Take `Cl.NS(=O)(=O)c1cc(C(=O)O)c(NCc2ccco2)cc1Cl` [FUROSEMIDE HYDROCHLORIDE]: the Change in data set [3] is given as -21%; in data set [4] it was -37%; in data set [5], -31%; in [6] it was -10%; in [7] it was 1%; in data set [8] it was -6%. Moreover, the Change in data set [9] is given as -11%; in [10], -3%; in data set [11], -12%.
